Key:
[1] = system: lymphocytes (fresh spleen cells); assay: Lymphocyte proliferation assay (ConA-induced spleen cells); assay type: cell-based, rat
Procedure: (§1) Lymphocytotoxicity test: rats were euthanized by spinal dislocation method, their spleens were aseptically removed and ground to make a single cell suspension. After removing red blood cells with 2 mL of red blood cell lysis buffer, the cell concentration was adjusted to 2×10^6 cells/mL using RPMI-1640 medium containing 10% fetal bovine serum (FBS). Next, 100 μL of the 2×10^6 cells/mL cell suspension and 100 μL of the appropriate concentration of the tested compound were added to each well of a 96-well plate, and the plate was incubated at 37° C. with 5% CO2 for 48 hours. At the end of the incubation period, 10 μL of CCK8 was added to each well, and the plate was returned to the incubator for 5-7 hours. The OD450 value was then measured at 450 nm using an enzyme-linked immunosorbent assay reader.
Lymphocyte proliferation assay: fresh spleen cells at a concentration of 2×10^6 cells/mL were incubated for 48 hours in an incubator maintained at 37° C. and 5% CO2 for 48 hours, and the culture medium was induced for cell proliferation with 5 μg/mL of ConA, and the appropriate concentration of the tested compound was added to test its inhibitory activity on lymphocyte proliferation. The test results of some compounds are shown in the table below and figures accompanying the application: […]

lymphocytes = assay: Lymphocytotoxicity test (CCK8, no stimulation factor); assay type: cell-based, rat
Procedure: as §1
In addition, the toxicity of the compounds on lymphocytes was also tested in this example. The testing method was as follows: the cell density was 3×10^6 cells/mL, and 100 μL of the cell suspension containing 3×10^5 cells/well was added to each well of a 96-well plate without any stimulation factor.

[2] = system: LPS-induced inflammatory factors IL-6, IL-2, TNF-a and IFN-y in serum; assay: Inhibition of LPS-induced cytokine storm in mice; assay type: in vivo
Procedure: A total of 15 healthy male mice were randomly and equally divided into 3 groups, namely, control group, model group and drug administration group, with 5 mice in each group, labeled and their body weight recorded. Respectively administered: the control group and the model group were injected with normal saline via tail vein respectively, and the administration group was injected with the prepared in Examples 1-4 via tail vein respectively; the dose was 10 mg/kg (2 mg/mL; 50 μL/10 g). One hour later, LPS was injected intraperitoneally at 3 mg/kg (0.3 mg/mL, 100 μL/10 g). A second injection of the drug was given 5 hours later. Blood was collected from the mice 9 hours later, followed by euthanasia.
(§2) ELISA was performed to determine levels of IL-6, IL-2, TNF-a and IFN-y in serum.
Histopathological examination was performed on the administration group of compound IA-3: mouse lungs were fixed with 4% paraformaldehyde, and histopathological changes were observed by HE.

[3] = system: CD-3 antibody-induced inflammatory factors IL-6, IL-2, TNF-a and IFN-y in serum; assay: Inhibition of CD-3 antibody-induced cytokine storm in mice; assay type: in vivo; settings: 10 mg/kg via tail vein, two injections, CD-3 antibody 100 μg/kg i.p., ELISA (FIG. 5)
Procedure: A total of 15 healthy male mice were randomly and equally divided into 3 groups, namely, control group, model group and drug administration group, with 5 mice in each group, labeled and their body weight recorded. Respectively administered: the control group and the model group were injected with normal saline via tail vein respectively, and the administration group was injected with the compounds prepared in Examples 1-4 via tail vein respectively; the dose was 10 mg/kg (2 mg/mL; 50 μL/10 g). CD-3 antibody was injected intraperitoneally, 100 μg/kg, after 0.5 hours. A second injection of the drug was given 5 hours later. Blood was collected from the mice 9 hours later, followed by euthanasia.
as §2

[4] = Pharmacokinetics and oral bioavailability in Wistar rats; assay type: in vivo; settings: rat
Procedure: To prepare the standard series solution, a suitable amount of compound IA-3 was accurately weighed and placed in a 100 mL volumetric flask. The compound was dissolved in acetonitrile and diluted to the mark to produce a 25.0 μg/mL stock solution. The solution was mixed thoroughly by shaking and used for further analysis. An appropriate amount of the stock solution was taken separately, diluted with acetonitrile, and made up to the mark to prepare a series of standard solutions with concentrations of 5, 10, 25, 50, 100, 250, 500, and 1000 ng/mL. The solutions were stored in a refrigerator at 4° C. for later use.
Preparation of internal standard solution: a suitable amount of internal standard was accurately weighed and placed in a 100 mL volumetric flask. The internal standard was dissolved in acetonitrile and diluted to the mark to produce a 25 μg/mL stock solution. The solution was mixed thoroughly by shaking and used for further analysis. An accurately weighed amount of the stock solution was taken again and diluted with acetonitrile to prepare the internal standard reference solution at a concentration of 50 ng/mL. The solution was stored in a refrigerator at 4° C. for later use.
Preparation of plasma samples: 80 μL of rat plasma was taken, and 120 μL of internal standard was added. The mixture was vortexed for 2 min and centrifuged for 10 min. Then, 140 μL of the supernatant was collected and centrifuged for another 10 min. Finally, 10 μL of the supernatant was injected for analysis.
Standard Curve: 64 μL of blank rat plasma was mixed with 16 μL of the test compound standard series solution and 120 μL of acetonitrile solution containing the internal standard. The mixture was vortexed for 2 minutes and centrifuged for 10 minutes. Then, 140 μL of the supernatant was taken and centrifuged for another 10 minutes, 10 μL of the sample was injected and analyzed with HPLC-HR-MS. Instrumentation obtained the linear regression equation as the standard curve.
Sampling: eight healthy male Wistar rats were randomly divided into two groups (oral group and intravenous group), with four rats in each group. Rats were fasted for 12 h and provided with free access to water before the experiment. The oral group was administered with the test drug at a dose of 5 mg/kg, and the intravenous group was administered with 1 mg/kg. Blood samples of approximately 0.4 mL were collected from the rat orbital vein before and at 5 min, 15 min, 30 min, 1 h, 1.5 h, 2 h, 4 h, 6 h, 8 h, 10 h, and 12 h after administration, and immediately transferred to heparinized centrifuge tubes. Plasma was separated by centrifugation.
Sample determination and data processing: the rat plasma samples were processed according to the “Preparation of plasma samples” procedure and analyzed under the conditions described above. The non-compartmental model was applied to process the drug concentration data mentioned above, and the pharmacokinetic parameters were calculated using the DAD 2.0 software. The bioavailability was calculated according to the formula F=AUCig*Div/AUCiv*Dig*100%.

[5] = male, Wistar, plasma, iv, single injection 1 mg/kg
[6] = male, Wistar, plasma, single oral administration 5 mg/kg
[7] = single oral administration 5 mg/kg

AUC(0-t) [4, 5]: 717 ng·h/mL
MRT [4, 5]: 30.4 min
clearance [4, 5]: 45.1 mL/min/kg
half-life [4, 5]: 21.6 min
Vd ([4]; male, Wistar, plasma, iv, single injection 1 mg/kg, read-out: Vss): 1.08 L/kg
bioavailability ([4]; male, Wistar, plasma, oral, intragastric 5 mg/kg vs intravenous 1 mg/kg, read-out: relative oral bioavailability): 22.1%
AUC(0-inf) [4, 6]: 408 ng·h/mL
AUC(0-t) [4, 6]: 408 ng·h/mL
MRT [4, 6]: 76.2 min
half-life [4, 6]: 125 min
CL [4, 7]: 384 mL/min/kg
Vss [4, 7]: 69.5 L/kg
Compound: O=C(NCc1cccnc1)c1csc(-c2cnn3cccnc23)n1 [IA-3]
IC50 ([1]; Rattus norvegicus, inhibition of lymphocyte proliferation, 5 μg/mL ConA, 48 hours): 13.2 ± 2.05 nM
Inhibition rate (%) ([1]; lymphocyte proliferation induced with 5 μg/mL ConA, 48 hours, test concentration not given): 97.09%
inhibitory effect on lymphocyte proliferation (in words) ([1]; rat lymphocytes): particularly significant inhibitory effect on lymphocytes
safety index (in words) (lymphocytes): high safety index
toxicity on lymphocytes (in words) (lymphocytes; 5, 2.5, 1.25 and 0.625 μM, no stimulation factor (FIG. 2)): less cytotoxicity
reduction of LPS-induced IL-6, IL-2, TNF-a and IFN-y levels in serum ([2]; 10 mg/kg via tail vein, two injections, LPS 3 mg/kg i.p., ELISA (FIG. 3)): most significant effect on the reduction of the above factors
lung histopathology (H&E) ([2]; LPS model, 10 mg/kg via tail vein (FIG. 4)): reduced the severity of lung pathology
reduction of CD-3 antibody-induced IL-6, IL-2, TNF-a and IFN-y levels in serum [3]: most significant effect on the reduction of the above factors
